{
  "source": "patent US20090012170A1",
  "about": "“TREATMENT OF SYMPTOMS OF MOTOR DYSFUNCTION” (priority 2005, published 2009)",
  "tested_on": "PD patients",
  "test": "Pooled analysis of three double blind, placebo-controlled studies and their open-label extensions: earlier vs. delayed start of entacapone adjunct to levodopa/DDC inhibitor",
  "format": "in vivo, human",
  "method": "A study was carried out to evaluate the effect of earlier vs. delayed start of entacapone adjunct to traditional levodopa/DDC inhibitor treatment on the long-term Parkinson's disease symptom control up to 5 years.\nAnalysis of pooled data of three pivotal double blind, placebo-controlled studies, and their respective long-term open-label extension studies up to 5 years on entacapone adjunct to optimised levodopa/DDC inhibitor and other PD treatment.\nA total of 488 PD patients, of whom 269 were on entacapone and 219 on placebo during the 6-month double blind phase, continued with open entacapone treatment in the long-term extension phases up to 5 years. UPDRS III assessment and the mean daily levodopa dose were reported until the point when a minimum of 10 patients in each treatment arm was available, i.e. up to five years.",
  "data": [
    {"smiles": "CCN(CC)C(=O)/C(C#N)=C/c1cc(O)c(O)c([N+](=O)[O-])c1", "note": "[entacapone, (E)-2-cyano-3-(3,4-dihydroxy-5-nitrophenyl)-N-diethyl-2 propenamide]", "values": [
      {"measurement": "decrease of mean daily levodopa dose after initiation of open entacapone", "setting": "delayed start group, comparable with the decrease in the earlier start group at the beginning of the double-blind phase, thereafter below baseline in both groups", "result": "about 70 mg"},
      {"measurement": "mean difference in UPDRS III over time between the earlier and delayed start treatment groups", "setting": "entacapone adjunct to levodopa/DDC inhibitor, earlier vs 6 months delayed start, up to 5 years, 95%CI [−3.01, −0.31], repeated measures analysis, p<0.05", "result": "−1.66"}
    ]}
  ]
}
